Each structure is given as a SMILES string.

This note sets out measurements from ChEMBL document CHEMBL5291721, “A preclinical secondary pharmacology resource illuminates target-adverse drug reaction associations of marketed drugs” (Nat Commun, 2023).

Assay [1] addresses Acetylcholinesterase (Homo sapiens, UniProt P22303). Type of assay: functional.
Assay [2] addresses T1, Alpha-1A adrenergic receptor (Homo sapiens, UniProt P35348).
T1 sequence (P35348 whole entry): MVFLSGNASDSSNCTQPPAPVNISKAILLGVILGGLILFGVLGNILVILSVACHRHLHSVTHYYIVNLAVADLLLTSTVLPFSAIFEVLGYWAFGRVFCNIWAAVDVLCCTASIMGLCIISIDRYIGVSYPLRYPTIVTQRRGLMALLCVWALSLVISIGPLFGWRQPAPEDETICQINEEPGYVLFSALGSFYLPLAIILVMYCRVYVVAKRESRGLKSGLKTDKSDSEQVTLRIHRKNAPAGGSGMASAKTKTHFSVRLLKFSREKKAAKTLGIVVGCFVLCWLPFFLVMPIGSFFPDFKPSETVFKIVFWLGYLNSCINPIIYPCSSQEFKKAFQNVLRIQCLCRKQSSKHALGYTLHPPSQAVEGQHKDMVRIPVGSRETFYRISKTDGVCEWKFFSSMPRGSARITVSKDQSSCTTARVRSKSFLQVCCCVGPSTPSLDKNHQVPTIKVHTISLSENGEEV
The class given is functional, cell-based.

Assay [3] has as its target Histamine H2 receptor (Homo sapiens, UniProt P25021). Type of assay: functional, cell-based.
Assay [4] addresses T2, Amine oxidase [flavin-containing] A (Homo sapiens, UniProt P21397).
T2 sequence (P21397 whole entry): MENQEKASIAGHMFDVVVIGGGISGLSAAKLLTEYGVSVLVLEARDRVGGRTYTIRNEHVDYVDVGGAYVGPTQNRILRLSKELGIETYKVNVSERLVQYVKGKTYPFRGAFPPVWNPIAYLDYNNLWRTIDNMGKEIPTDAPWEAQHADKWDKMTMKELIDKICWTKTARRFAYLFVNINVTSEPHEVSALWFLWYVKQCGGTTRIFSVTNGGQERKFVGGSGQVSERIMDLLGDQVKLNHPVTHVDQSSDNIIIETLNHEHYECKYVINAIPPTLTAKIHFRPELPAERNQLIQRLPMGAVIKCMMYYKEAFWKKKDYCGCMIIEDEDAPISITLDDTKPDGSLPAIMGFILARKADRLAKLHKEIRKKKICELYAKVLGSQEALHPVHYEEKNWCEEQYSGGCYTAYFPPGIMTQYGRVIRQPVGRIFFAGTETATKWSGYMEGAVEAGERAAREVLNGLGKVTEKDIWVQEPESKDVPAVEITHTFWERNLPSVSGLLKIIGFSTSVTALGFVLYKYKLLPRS
Type of assay: functional.

The target of assay [5] is Melanocortin receptor 4 (Homo sapiens, UniProt P32245).
Sequence of Melanocortin receptor 4 (P32245 whole entry): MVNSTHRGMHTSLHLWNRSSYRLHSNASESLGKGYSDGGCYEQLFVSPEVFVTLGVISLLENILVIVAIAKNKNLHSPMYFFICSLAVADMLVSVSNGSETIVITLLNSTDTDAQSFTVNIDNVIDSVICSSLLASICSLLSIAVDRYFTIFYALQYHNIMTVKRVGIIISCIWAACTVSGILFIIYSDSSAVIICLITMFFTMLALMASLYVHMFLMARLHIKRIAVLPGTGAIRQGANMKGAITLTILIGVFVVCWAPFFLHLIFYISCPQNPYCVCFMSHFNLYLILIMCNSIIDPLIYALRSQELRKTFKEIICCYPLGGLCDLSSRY
For assay [6], the target named is T3, Glucocorticoid receptor (Homo sapiens, UniProt P04150).
T3 sequence (P04150 whole entry): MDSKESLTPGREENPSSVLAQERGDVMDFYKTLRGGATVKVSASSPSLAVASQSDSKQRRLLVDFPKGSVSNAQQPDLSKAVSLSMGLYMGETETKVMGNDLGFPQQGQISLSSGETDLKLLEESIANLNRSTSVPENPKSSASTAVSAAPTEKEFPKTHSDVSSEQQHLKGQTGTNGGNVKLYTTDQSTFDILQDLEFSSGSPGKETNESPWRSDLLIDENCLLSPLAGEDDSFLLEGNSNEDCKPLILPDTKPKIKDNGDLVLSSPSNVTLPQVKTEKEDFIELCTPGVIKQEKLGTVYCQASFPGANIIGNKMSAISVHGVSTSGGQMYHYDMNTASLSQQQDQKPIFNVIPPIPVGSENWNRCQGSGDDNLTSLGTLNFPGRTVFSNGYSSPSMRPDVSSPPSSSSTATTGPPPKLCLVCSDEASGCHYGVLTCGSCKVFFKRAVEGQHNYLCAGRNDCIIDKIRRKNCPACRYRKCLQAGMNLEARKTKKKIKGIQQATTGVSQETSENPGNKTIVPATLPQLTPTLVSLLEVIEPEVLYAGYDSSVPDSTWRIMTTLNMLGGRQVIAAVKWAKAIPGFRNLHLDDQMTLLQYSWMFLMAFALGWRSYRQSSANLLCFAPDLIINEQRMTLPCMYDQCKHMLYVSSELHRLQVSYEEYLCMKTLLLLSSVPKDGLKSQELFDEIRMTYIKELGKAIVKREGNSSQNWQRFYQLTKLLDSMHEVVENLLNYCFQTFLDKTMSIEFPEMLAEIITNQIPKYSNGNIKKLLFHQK

Assay [7] has as its target Sodium channel protein type 5 subunit alpha (Homo sapiens, UniProt Q14524). The class given is functional, cell-based.
For assay [8], the target named is Sodium-dependent dopamine transporter (Homo sapiens, UniProt Q01959).
Sequence of Sodium-dependent dopamine transporter (Q01959 whole entry): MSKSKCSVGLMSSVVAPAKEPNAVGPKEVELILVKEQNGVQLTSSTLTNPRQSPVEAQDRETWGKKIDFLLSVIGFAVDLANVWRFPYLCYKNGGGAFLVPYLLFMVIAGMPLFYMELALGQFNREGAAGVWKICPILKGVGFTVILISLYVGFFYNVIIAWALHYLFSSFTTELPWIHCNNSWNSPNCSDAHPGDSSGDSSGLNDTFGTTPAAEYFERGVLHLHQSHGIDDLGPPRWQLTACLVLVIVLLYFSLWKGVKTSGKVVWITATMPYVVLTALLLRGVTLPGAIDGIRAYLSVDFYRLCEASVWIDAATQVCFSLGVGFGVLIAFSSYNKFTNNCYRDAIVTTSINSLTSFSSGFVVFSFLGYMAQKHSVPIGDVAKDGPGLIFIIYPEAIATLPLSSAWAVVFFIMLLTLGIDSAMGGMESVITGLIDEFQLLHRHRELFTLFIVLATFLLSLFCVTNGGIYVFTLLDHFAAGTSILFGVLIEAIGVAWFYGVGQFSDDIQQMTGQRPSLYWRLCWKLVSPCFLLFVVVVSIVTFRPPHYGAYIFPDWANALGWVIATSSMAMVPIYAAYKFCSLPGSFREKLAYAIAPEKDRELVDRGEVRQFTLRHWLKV
Assay [9] has as its target T1, Alpha-1A adrenergic receptor. The class given is functional, cell-based. This is another data set of the same source.
Assay [10] has as its target T4, Cannabinoid receptor 1 (Homo sapiens, UniProt P21554). Type of assay: functional, cell-based.
In assay [11] the target is T4, Cannabinoid receptor 1. Type of assay: functional, cell-based. This is another data set of the same source.
For assay [12], the target named is T1, Alpha-1A adrenergic receptor. The class given is functional, cell-based. This is another data set of the same source.
Assay [13] deals with Muscarinic acetylcholine receptor M3 (Homo sapiens, UniProt P20309).
Assay [14] has as its target Gamma-aminobutyric acid receptor subunit alpha-1/alpha-2/beta-2/gamma-2 (Homo sapiens, UniProt P14867+P18507+P47869+P47870). Type of assay: functional, cell-based.
Assay [15] concerns the target Histamine H1 receptor (Homo sapiens, UniProt P35367).
The target of assay [16] is T5, 5-hydroxytryptamine receptor 2A (Homo sapiens, UniProt P28223). The class given is functional, cell-based.
T5 sequence (P28223 whole entry): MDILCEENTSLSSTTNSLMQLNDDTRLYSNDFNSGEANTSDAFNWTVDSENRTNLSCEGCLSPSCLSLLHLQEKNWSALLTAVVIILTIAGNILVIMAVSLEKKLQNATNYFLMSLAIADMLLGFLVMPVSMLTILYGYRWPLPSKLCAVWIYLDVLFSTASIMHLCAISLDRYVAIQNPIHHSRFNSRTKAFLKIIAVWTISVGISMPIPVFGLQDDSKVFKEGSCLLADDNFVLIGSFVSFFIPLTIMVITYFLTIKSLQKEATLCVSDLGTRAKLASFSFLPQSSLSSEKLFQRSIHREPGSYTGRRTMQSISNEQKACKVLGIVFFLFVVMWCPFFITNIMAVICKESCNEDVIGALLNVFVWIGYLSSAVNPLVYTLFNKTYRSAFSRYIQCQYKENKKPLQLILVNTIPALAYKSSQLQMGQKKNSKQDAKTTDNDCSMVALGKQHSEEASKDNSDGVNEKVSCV
The target of assay [17] is T5, 5-hydroxytryptamine receptor 2A. Type of assay: functional, cell-based. This is another data set of the same source.
The target in assay [18] is Beta-2 adrenergic receptor (Homo sapiens, UniProt P07550). The class given is functional, cell-based.
Also: assay procedure not described here.

Sequence of Acetylcholinesterase (P22303 whole entry): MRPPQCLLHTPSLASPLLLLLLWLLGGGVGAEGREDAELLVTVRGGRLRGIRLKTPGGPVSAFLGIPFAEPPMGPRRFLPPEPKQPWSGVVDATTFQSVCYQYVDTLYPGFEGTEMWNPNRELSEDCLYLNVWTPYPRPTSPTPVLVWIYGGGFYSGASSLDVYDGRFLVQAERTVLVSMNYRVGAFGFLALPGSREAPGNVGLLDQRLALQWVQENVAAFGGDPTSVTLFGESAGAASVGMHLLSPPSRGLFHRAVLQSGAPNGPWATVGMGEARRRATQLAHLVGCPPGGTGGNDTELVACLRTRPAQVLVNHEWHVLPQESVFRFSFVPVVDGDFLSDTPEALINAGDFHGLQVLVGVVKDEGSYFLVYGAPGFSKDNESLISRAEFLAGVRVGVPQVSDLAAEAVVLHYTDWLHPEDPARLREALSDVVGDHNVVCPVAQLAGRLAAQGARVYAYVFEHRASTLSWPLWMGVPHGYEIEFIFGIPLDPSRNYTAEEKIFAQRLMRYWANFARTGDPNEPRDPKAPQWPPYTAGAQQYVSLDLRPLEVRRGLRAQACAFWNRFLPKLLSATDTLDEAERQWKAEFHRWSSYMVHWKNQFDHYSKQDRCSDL
Sequence of Sodium channel protein type 5 subunit alpha (Q14524 whole entry): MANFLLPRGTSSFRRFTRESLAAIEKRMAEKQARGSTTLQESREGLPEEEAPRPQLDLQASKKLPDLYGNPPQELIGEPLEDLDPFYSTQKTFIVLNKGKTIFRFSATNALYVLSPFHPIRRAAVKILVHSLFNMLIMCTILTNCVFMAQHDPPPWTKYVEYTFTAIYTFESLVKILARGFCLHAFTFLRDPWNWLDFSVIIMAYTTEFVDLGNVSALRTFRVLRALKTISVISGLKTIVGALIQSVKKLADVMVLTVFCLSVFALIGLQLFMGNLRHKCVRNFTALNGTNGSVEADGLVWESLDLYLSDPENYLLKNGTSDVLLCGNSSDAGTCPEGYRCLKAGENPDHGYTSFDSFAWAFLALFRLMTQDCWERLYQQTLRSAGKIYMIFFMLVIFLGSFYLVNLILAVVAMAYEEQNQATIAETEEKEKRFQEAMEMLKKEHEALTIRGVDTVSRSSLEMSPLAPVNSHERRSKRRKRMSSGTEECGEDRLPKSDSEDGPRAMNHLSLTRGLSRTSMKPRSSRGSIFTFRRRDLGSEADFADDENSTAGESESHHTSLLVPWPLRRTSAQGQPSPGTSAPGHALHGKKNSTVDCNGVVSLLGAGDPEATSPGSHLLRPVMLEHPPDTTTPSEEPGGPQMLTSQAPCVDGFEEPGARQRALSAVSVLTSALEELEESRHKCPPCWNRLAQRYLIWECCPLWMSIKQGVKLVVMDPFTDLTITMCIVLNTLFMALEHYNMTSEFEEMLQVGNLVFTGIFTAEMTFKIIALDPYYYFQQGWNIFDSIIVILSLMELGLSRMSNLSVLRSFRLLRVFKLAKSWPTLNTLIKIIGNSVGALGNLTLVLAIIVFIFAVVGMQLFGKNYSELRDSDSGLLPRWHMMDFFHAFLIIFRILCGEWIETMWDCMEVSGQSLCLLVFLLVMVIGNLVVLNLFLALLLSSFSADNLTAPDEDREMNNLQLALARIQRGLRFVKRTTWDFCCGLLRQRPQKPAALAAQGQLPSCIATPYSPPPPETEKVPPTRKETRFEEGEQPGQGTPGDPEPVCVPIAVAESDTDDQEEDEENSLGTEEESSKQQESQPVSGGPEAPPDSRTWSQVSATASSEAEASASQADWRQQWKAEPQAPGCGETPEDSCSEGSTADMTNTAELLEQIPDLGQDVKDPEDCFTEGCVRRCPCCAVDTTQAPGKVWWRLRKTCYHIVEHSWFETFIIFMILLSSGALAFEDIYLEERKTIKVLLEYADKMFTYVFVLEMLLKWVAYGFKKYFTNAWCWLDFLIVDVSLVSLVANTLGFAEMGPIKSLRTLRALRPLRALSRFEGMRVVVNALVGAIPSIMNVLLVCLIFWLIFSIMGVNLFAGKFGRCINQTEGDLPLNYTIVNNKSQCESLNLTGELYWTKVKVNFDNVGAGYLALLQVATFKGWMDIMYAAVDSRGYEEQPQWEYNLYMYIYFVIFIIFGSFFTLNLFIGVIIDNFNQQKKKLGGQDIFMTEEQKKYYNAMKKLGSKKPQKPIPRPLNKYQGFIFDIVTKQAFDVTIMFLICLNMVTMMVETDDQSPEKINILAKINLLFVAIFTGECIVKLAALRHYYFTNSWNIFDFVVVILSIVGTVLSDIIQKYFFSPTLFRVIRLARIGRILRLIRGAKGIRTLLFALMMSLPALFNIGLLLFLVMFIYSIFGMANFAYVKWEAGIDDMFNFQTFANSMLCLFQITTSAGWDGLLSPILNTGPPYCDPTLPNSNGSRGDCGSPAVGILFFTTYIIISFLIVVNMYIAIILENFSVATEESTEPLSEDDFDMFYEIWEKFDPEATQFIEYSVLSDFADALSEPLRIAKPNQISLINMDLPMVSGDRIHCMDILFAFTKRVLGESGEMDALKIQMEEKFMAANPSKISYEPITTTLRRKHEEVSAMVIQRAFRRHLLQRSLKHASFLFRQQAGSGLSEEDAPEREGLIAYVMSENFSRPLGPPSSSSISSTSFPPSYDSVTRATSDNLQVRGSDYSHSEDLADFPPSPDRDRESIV
T4 sequence (P21554 whole entry): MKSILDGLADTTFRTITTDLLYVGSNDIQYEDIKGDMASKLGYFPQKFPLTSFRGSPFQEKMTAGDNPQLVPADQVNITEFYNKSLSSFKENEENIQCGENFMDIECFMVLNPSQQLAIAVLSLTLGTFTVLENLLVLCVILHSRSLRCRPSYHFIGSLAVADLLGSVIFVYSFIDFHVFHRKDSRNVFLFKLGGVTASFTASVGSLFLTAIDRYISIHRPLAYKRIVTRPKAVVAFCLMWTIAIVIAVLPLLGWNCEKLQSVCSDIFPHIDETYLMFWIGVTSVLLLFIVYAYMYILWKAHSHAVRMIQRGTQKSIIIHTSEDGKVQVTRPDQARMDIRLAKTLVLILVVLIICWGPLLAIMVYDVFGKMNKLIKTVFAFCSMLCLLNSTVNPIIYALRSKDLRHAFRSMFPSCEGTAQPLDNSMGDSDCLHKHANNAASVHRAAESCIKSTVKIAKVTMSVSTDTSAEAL
Sequence of Histamine H2 receptor (P25021 whole entry): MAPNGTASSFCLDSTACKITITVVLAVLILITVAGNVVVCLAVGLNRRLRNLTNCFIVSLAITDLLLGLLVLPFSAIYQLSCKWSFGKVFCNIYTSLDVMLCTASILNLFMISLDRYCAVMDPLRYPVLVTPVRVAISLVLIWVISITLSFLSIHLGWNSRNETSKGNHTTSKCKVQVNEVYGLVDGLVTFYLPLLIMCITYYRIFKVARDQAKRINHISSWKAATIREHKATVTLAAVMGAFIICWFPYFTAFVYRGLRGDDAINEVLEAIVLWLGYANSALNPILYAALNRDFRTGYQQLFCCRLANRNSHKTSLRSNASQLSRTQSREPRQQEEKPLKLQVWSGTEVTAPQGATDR

The AC50 is the midpoint of the concentration-response curve, whichever way the signal moves. A higher AC50 goes with weaker potency. As to `C#C[C@]1(O)CC[C@H]2[C@@H]3CCc4cc(O)ccc4[C@H]3CC[C@@]21C` [ETHINYL ESTRADIOL], the AC50 is above 30 µM in [1]; above 30 µM in [2]; above 10 µM in assay [3]; above 30 µM in assay [4]; above 30 µM in assay [5]; 0.12 µM in assay [6]. For the same compound, the AC50 is above 30 µM in assay [7] and 0.8 µM in assay [8].
`COC(=O)C1=C(C)NC(C)=C(C(=O)OCC(C)C)C1c1ccccc1[N+](=O)[O-]` (configuration not stated) [NISOLDIPINE]: the AC50 in assay [9] is above 30 µM; in assay [10], above 30 µM; in [11] it was 12 µM; in assay [3] it was above 30 µM; in assay [5], above 10 µM; in [6], 8.8 µM. Besides, the AC50 in assay [7] was 8.6 µM; in assay [12] it was 11 µM.
As to `OCc1cc([C@@H](O)CNCCCCCCOCCOCc2c(Cl)cccc2Cl)ccc1O` [VILANTEROL], the AC50 was 1.1 µM in [9]; above 30 µM in assay [13]; above 30 µM in assay [10]; above 30 µM in assay [11]; above 30 µM in assay [14]; above 30 µM in [15]. Further, the AC50 in [16] is above 30 µM; in [17], 23 µM; in assay [7], 5 µM.
Consider `CC(C)OC(=O)[C@H](C)N[P@](=O)(OC[C@H]1O[C@@H](n2ccc(=O)[nH]c2=O)[C@](C)(F)[C@@H]1O)Oc1ccccc1` [SOFOSBUVIR], for which the AC50 was above 30 µM in assay [1]; above 30 µM in assay [2]; above 30 µM in assay [4]; above 50 µM in assay [7]; above 30 µM in assay [8].
With `O=C(NC[C@H]1CN(c2ccc(N3CCOCC3=O)cc2)C(=O)O1)c1ccc(Cl)s1` [RIVAROXABAN], the AC50 in assay [1], in assay [9], in assay [2], in assay [18], in assay [13] and in [10] was above 30 µM throughout. The AC50 is above 30 µM in assay [14]; above 30 µM in [15]; above 30 µM in [16]; above 30 µM in [17]; above 30 µM in [4]; above 50 µM in [7]. Also, the AC50 in [8] and in assay [12] was above 30 µM in each case.
For the compound `O=C(COc1ccc(Cl)cc1)N1CCN(Cc2ccc3c(c2)OCO3)CC1` [FIPEXIDE], the AC50 is above 30 µM in assay [1]; above 30 µM in assay [2]; above 30 µM in [4]; above 50 µM in assay [7]; 12.9 µM in [8].
Consider `CS(=O)(=O)c1ccc([C@@H](O)[C@@H](CO)NC(=O)C(Cl)Cl)cc1` [THIAMPHENICOL], for which the AC50 in assay [1], in assay [9], in [2], in [10], in assay [11] and in assay [3] was above 30 µM in each case. Besides, the AC50 was above 30 µM in assay [4]; above 30 µM in assay [6]; above 50 µM in [7]; above 30 µM in [8]; above 30 µM in [12].
For the compound `CCOC(=O)[C@H](CCc1ccccc1)N[C@@H](C)C(=O)N1CCC[C@H]1C(=O)O`, the AC50 in [9] is above 30 µM; in assay [18] it was above 30 µM; in assay [10], above 30 µM; in assay [11], above 30 µM; in [3] it was above 10 µM; in [5], above 30 µM. Besides, the AC50 in assay [6], in assay [7] and in [12] was above 30 µM throughout.
For `CC(C)NCC(O)COc1ccc(COCCOC(C)C)cc1` (configuration not stated) [BISOPROLOL], the AC50 is above 30 µM in [13]; above 10 µM in [15]; above 10 µM in assay [3]; above 30 µM in assay [16]; above 30 µM in assay [17]; above 30 µM in assay [5]. The AC50 in [6] and in [7] was above 30 µM in each case.
